Assay results reported in ChEMBL document CHEMBL4725277, “Synthetic and therapeutic perspectives of nitrogen containing heterocycles as anti-convulsants” (Bioorg Med Chem, 2020).
Each block holds one compound with its values, some of them ahead of it.

Assays:
Mus musculus [1] = test: Anticonvulsant activity in albino mouse assessed as protection against 50 mA current-induced seizure at 25 mg/kg by maximal electroshock seizure test relative to control; assay type: functional
Mus musculus [2] = species on record: Mus musculus; test: Anticonvulsant activity in mouse assessed as protection against 50 mA current-induced seizure after 0.5 hrs by maximal electroshock seizure test; assay type: functional
[3] = Neurotoxicity in mouse by rotarod test; assay type: toxicity; details: in vivo
[4] = Protective index, ratio of TD50 for neurotoxicity in mouse to ED50 for anticonvulsant activity in mouse assessed as protection against 50 mA current-induced seizure; assay type: toxicity; details: in vivo, read-out: PI
Mus musculus [5] = species on record: Mus musculus; test: Anticonvulsant activity in mouse assessed as protection against current-induced seizure by maximal electroshock seizure test; assay type: functional
[6] = Protective index, ratio of TD50 for neurotoxicity in mouse to ED50 for anticonvulsant activity in mouse assessed as protection against pentylenetetrazole-induced seizure; assay type: toxicity; details: in vivo, read-out: PI
Mus musculus [7] = species on record: Mus musculus; test: Anticonvulsant activity in albino mouse assessed as pentylenetetrazole-induced seizure; assay type: functional
[8] = Protective index, ratio of TD50 for neurotoxicity in mouse to ED50 for anticonvulsant activity in mouse assessed as protection against current-induced seizure; assay type: toxicity; details: in vivo, read-out: PI
[9] = Protective index, ratio of TD50 for neurotoxicity in ip and po injected mouse to ED50 for anticonvulsant activity in mouse assessed as protection against 50 mA current-induced seizure; assay type: toxicity, organism-based; details: in vivo, read-out: PI
[10] = Neurotoxicity in ip and po injected mouse; assay type: toxicity, organism-based; details: in vivo
Mus musculus [11] = species on record: Mus musculus; test: Anticonvulsant activity in albino mouse assessed as current-induced seizure relative to control; assay type: functional
Mus musculus [12] = species on record: Mus musculus; test: Anticonvulsant activity in albino mouse assessed as current-induced seizure latency time; assay type: functional
Mus musculus [13] = test: Anticonvulsant activity in ip injected albino mouse assessed as protection against 50 mA current-induced seizure by maximal electroshock seizure test; assay type: functional
[14] = Protective index, ratio of TD50 for neurotoxicity in ip injected albino mouse to ED50 for anticonvulsant activity in ip injected albino mouse assessed as protection against 50 mA current-induced seizure; assay type: toxicity, organism-based; details: in vivo
[15] = Neurotoxicity in ip injected albino mouse; assay type: toxicity, organism-based; details: in vivo
[16] = Protective index, ratio of TD50 for neurotoxicity in KunMing mouse to ED50 for anticonvulsant activity in KunMing mouse assessed as protection against pentylenetetrazole-induced seizure; assay type: toxicity; details: in vivo, read-out: PI
[17] = Neurotoxicity in KunMing mouse by rotarod test; assay type: toxicity; details: KunMing, in vivo, read-out: TD50
[18] = Protective index, ratio of TD50 for neurotoxicity in KunMing mouse to ED50 for anticonvulsant activity in KunMing mouse assessed as protection against current-induced seizure; assay type: toxicity; details: in vivo, read-out: PI
Mus musculus [19] = species on record: Mus musculus; test: Anticonvulsant activity in KunMing mouse assessed as protection against current-induced seizure by maximal electroshock seizure test; assay type: functional
Mus musculus [20] = species on record: Mus musculus; test: Anticonvulsant activity in KunMing mouse assessed as protection against pentylenetetrazole-induced seizure by maximal electroshock seizure test; assay type: functional
Mus musculus [21] = species on record: Mus musculus; test: Anticonvulsant activity in KunMing mouse assessed as protection against 50 mA current-induced seizure after 0.5 to 4 hrs by maximal electroshock seizure test; assay type: functional; details: time hrs 0.5-4
Mus musculus [22] = test: Anticonvulsant activity in ip injected albino mouse assessed as protection against 50 mA current-induced seizure after 0.5 to 4 hrs interval by maximal electroshock seizure test; assay type: functional; details: time hrs 0.5-4
Mus musculus [23] = species on record: Mus musculus; test: Anticonvulsant activity in albino mouse assessed as pentylenetetrazole-induced seizure measured after 30 mins; assay type: functional; details: 0.5 h
[24] = Protective index, ratio of TD50 for neurotoxicity in ip injected albino mouse to ED50 for anticonvulsant activity in albino mouse assessed as pentylenetetrazole-induced seizure; assay type: toxicity, organism-based; details: in vivo
Mus musculus [25] = species on record: Mus musculus; test: Anticonvulsant activity in albino mouse assessed as protection against 50 mA current-induced seizure by maximal electroshock seizure test; assay type: functional
Mus musculus [26] = test: Anticonvulsant activity in albino mouse assessed as protection against 50 mA current-induced seizure at 50 mg/kg by maximal electroshock seizure test relative to control; assay type: functional
Mus musculus [27] = species on record: Mus musculus; test: Anticonvulsant activity in albino mouse assessed as protection against 50 mA current-induced seizure; assay type: functional; details: read-out: PD50
Mus musculus [28] = test: Anticonvulsant activity in albino mouse assessed as protection against 50 mA current-induced seizure at 100 mg/kg by maximal electroshock seizure test relative to control; assay type: functional
Mus musculus [29] = test: Anticonvulsant activity in albino mouse assessed as protection against 50 mA current-induced seizure at 200 mg/kg by maximal electroshock seizure test relative to control; assay type: functional
[30] = Lipophilicity, log P of the compound; assay type: physicochemical; details: octanol/water
[31] = Neurotoxicity in albino rat at 100 mg/kg, ip after 30 mins (reference value: 2%); assay type: toxicity, organism-based; details: in vivo, 0.5 h
[32] = Neurotoxicity in KunMing mouse after 30 mins by rotarod test; assay type: toxicity; details: in vivo
Mus musculus [33] = species on record: Mus musculus; test: Anticonvulsant activity in KunMing mouse assessed as protection against 50 mA current-induced seizure after 30 mins interval by maximal electroshock seizure test; assay type: functional; details: 0.5 h
[34] = Protective index, ratio of TD50 for neurotoxicity in KunMing mouse to ED50 for anticonvulsant activity in KunMing mouse assessed as protection against 50 mA current-induced seizure; assay type: toxicity; details: in vivo, read-out: PI

SMILES: Clc1ccc(Nc2nnc(-c3ccncc3)s2)cc1
Activity (Mus musculus [1]): 100%

SMILES: FC(F)(F)c1cccc(COc2nn3cnnc3c3ccccc23)c1
ED50 (Mus musculus [2]; Mus musculus, read-out: ED50): 9.3 mg/kg | TD50 [3]: 853 mg/kg | selectivity ratio [4]: 91.7

SMILES: Cc1ccc(NC(=S)N2C(=S)N=C(c3ccccc3)CC2c2ccc(O)cc2)cc1 (centres undefined)
ED50 (Mus musculus [5]): 15.6 mg/kg | selectivity ratio [6]: 1.9 | ED50 (Mus musculus [7]): 278 mg/kg | selectivity ratio [8]: 34.2 | TD50 [3]: 534 mg/kg

SMILES: O=c1c2ccccc2n2cnnc2n1-c1ccc(Cl)cc1
selectivity ratio [9]: > 25.6 | ED50 (Mus musculus [2]): 27.39 | TD50 [10]: > 700 mg/kg

SMILES: CC(=O)Oc1cc2ccccc2cc1-c1nnc(N(CCc2ccccc2)C(C)=O)s1
Activity (Mus musculus [11]): 90% | Time (Mus musculus [12]): 5.92 min

SMILES: Nc1nc(-c2ccccc2)nnc1C(=O)N1CCCC1c1noc2cc(Cl)ccc12 (centres undefined)
ED50 (Mus musculus [13]): 5.7 mg/kg | selectivity ratio ([14]; read-out: Ratio): > 18 | TD50 [15]: 103 mg/kg

SMILES: Clc1ccc(C2Cc3nncn3-c3ccsc32)cc1 (centres undefined)
selectivity ratio [16]: 22.2 | TD50 [17]: 456 mg/kg | selectivity ratio [18]: 48 | ED50 (Mus musculus [19]): 9.5 mg/kg | ED50 (Mus musculus [20]): 20.5 mg/kg

SMILES: O=c1[nH]nc2n1-c1ccc(OCc3ccc(F)cc3)cc1SCC2
ED50 (Mus musculus [21]): 26.3 mg/kg | TD50 [3]: 331 mg/kg | selectivity ratio [4]: 12.6

SMILES: COc1ccc(N2C(=S)N=C(c3ccccc3)CC2c2ccccc2)cc1 (centres undefined)
ED50 (Mus musculus [22]): 16.8 mg/kg | selectivity ratio ([14]; read-out: PI): 31.8 | TD50 [15]: 534 mg/kg | ED50 (Mus musculus [23]): 378 mg/kg | selectivity ratio ([24]; read-out: PI): 1.4

SMILES: Nc1nnc(-c2ccccc2OCc2ccccc2F)o1
ED50 (Mus musculus [23]): 9 mg/kg | ED50 (Mus musculus [25]): 16.2 mg/kg

SMILES: O=C1CN=C2c3ccccc3N=C(COc3ccc(Cl)cc3Cl)N2N1
Activity (Mus musculus [26]): 60% | ED50 (Mus musculus [27]): 87.5 mg/kg | Activity (Mus musculus [28]): 90% | Activity (Mus musculus [29]): 90%

logP [30]: 2.45
SMILES: COc1ccc(-c2nc(N/N=C/c3ccc(Br)cc3)[nH]c(=O)c2C#N)cc1

SMILES: Clc1ccc(Nc2nnc(-c3ccncc3)o2)cc1
Activity (Mus musculus [1]): 100%

logP [30]: 1.27
SMILES: COc1ccc(-c2nc(N/N=C/c3ccc(O)cc3)[nH]c(=O)c2C#N)cc1

SMILES: CN(C)CCOc1ccc2c(c1)C(=O)C(=O)N2
Activity [31]: 7%

SMILES: Clc1ccc(Oc2cccc3nncn23)cc1
ED50 (Mus musculus [5]): 13.2 mg/kg | selectivity ratio [8]: 4.8 | TD50 [3]: 63.4 mg/kg

SMILES: CCCCOc1ccc2c(c1)sc1n[nH]c(=O)n12
ED50 (Mus musculus [5]): 13.6 mg/kg | selectivity ratio [8]: > 51 | TD50 [3]: > 700 mg/kg

SMILES: CCCCCCOc1ccc2c(c1)CCc1nnc(C(N)=O)n1-2
TD50 at 0.5 h [32]: 286 mg/kg | ED50 (Mus musculus [33]): 30.1 mg/kg | selectivity ratio [34]: 9.5

SMILES: CN(C)Nc1ccc(/C=N/Nc2nnc(-c3ccccc3)nc2Cc2cccc(Cl)c2)cc1
ED50 (Mus musculus [22]): 54.3 mg/kg | selectivity ratio ([14]; read-out: Ratio): 8.01 | TD50 [15]: 435 mg/kg | ED50 (Mus musculus [23]): 92 mg/kg | selectivity ratio ([24]; read-out: Ratio): 4.73
